Laboratory results taken from patent publication US20230257396A1, “MACROCYCLES AND THEIR USE” (BLOSSOMHILL THERAPEUTICS, INC., priority 2020, published 2023).
Residue numbers refer to the chain shown, from its start.

How the values were obtained:
Assay in all cases: KINOMEscan kinase binding assay (Eurofins/DiscoveRx), % Ctrl
kinases [1] = molecular target: T1, kinases (Homo sapiens, UniProt P36888, K663Q)
T1 construct: purchased Eurofins/DiscoveRx; host or cells: E. coli BL21-derived host (T7 phage display) for most kinases; HEK-293 for the rest
T1 sequence (P36888 27-993 K663Q): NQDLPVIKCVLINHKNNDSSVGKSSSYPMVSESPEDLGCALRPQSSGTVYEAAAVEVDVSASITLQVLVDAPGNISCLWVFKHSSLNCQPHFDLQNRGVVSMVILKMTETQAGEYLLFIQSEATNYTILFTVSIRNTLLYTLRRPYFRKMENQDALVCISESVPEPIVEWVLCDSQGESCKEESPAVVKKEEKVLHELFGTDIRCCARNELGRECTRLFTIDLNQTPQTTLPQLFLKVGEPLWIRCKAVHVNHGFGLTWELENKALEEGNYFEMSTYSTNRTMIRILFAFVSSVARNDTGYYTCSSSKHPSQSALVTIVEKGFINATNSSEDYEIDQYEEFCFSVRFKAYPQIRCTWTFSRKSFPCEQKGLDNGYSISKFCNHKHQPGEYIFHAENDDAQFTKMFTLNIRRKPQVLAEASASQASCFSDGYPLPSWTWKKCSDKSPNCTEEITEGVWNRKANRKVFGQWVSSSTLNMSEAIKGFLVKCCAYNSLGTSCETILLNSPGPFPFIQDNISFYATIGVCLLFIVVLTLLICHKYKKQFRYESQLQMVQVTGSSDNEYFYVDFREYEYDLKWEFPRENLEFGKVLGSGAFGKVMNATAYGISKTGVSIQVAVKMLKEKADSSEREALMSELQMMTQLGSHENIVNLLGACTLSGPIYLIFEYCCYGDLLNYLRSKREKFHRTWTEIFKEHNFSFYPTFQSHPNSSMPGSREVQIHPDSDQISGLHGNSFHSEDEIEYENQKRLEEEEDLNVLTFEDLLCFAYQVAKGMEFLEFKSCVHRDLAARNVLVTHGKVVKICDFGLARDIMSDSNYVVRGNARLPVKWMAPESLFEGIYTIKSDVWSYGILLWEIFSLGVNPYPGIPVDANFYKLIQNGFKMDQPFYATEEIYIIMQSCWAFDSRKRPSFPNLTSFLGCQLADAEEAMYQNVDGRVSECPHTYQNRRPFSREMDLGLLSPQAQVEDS
Procedure, shortened: (§1)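 Competition binding, 1 h RT: phage-tagged or HEK-293-expressed DNA-tagged kinase + immobilized ligand + compound. Eluate kinase by qPCR. % Ctrl = (test − positive ctrl)/(negative ctrl − positive ctrl) × 100; lower means stronger binding.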

kinases [2] = molecular target: T2, kinases (Homo sapiens, UniProt P00533, DEL752-759)
T2 construct: purchased Eurofins/DiscoveRx; host or cells: E. coli BL21-derived host (T7 phage display) for most kinases; HEK-293 for the rest
Procedure, shortened: as §1

kinases [3] = molecular target: T3, kinases (Homo sapiens, UniProt P42684)
T3 construct: purchased Eurofins/DiscoveRx; host or cells: E. coli BL21-derived host (T7 phage display) for most kinases; HEK-293 for the rest
T3 sequence (P42684 whole entry): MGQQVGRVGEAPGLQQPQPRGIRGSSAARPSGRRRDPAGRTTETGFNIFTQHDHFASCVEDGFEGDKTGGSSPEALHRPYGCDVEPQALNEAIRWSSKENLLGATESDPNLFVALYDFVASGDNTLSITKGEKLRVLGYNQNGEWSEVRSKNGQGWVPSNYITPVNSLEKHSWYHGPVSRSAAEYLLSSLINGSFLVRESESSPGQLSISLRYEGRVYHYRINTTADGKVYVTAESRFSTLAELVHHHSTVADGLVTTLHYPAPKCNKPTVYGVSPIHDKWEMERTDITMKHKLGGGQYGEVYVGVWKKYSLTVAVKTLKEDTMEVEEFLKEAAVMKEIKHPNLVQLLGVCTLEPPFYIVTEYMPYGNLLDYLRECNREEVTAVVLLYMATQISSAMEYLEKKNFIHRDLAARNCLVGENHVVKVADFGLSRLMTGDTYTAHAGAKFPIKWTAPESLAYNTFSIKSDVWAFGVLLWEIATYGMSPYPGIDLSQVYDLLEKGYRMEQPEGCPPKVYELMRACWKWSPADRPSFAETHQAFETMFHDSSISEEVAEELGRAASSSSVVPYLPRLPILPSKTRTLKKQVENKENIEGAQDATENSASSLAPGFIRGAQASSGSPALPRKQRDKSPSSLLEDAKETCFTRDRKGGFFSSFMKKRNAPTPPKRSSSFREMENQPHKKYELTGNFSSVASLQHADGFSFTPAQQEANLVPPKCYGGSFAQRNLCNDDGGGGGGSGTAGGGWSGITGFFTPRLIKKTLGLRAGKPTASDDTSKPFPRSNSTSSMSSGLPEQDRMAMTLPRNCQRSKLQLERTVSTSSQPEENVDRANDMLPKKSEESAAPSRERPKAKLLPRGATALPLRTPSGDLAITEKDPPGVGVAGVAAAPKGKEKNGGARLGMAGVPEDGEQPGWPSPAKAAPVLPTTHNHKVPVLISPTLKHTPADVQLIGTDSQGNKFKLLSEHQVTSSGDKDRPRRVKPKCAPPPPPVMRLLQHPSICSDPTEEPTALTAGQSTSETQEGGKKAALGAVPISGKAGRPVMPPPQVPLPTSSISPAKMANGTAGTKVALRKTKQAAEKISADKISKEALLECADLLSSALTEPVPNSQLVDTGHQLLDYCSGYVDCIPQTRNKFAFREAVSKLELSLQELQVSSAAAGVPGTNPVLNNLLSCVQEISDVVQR
Procedure, shortened: as §1

kinases [4] = molecular target: T4, kinases (Homo sapiens, UniProt P00533, T790M)
T4 construct: purchased Eurofins/DiscoveRx; host or cells: E. coli BL21-derived host (T7 phage display) for most kinases; HEK-293 for the rest
Procedure, shortened: as §1

kinases [5] = molecular target: T5, kinases (Homo sapiens, UniProt P36888, D835Y)
T5 construct: purchased Eurofins/DiscoveRx; host or cells: E. coli BL21-derived host (T7 phage display) for most kinases; HEK-293 for the rest
T5 sequence (P36888 27-993 D835Y): T1 sequence (P36888 27-993 K663Q) with Q637K, D809Y
Procedure, shortened: as §1

kinases [6] = molecular target: T6, kinases (Homo sapiens, UniProt P00533, DEL746-750)
T6 construct: purchased Eurofins/DiscoveRx; host or cells: E. coli BL21-derived host (T7 phage display) for most kinases; HEK-293 for the rest
Procedure, shortened: as §1

[7] = target EGFR(S752-I759del); 1 μM
[8] = target EGFR(E746-A750del); 1 μM

Row | Compound | % Ctrl, FLT3(K663Q) (kinases [1]; target FLT3(K663Q); 1 μM) [% Ctrl] | % Ctrl, EGFR(S752-I759del) (kinases [2]; [7]) [% Ctrl] | % Ctrl, ABL2 (kinases [3]; target ABL2; 1 μM) [% Ctrl] | % Ctrl, EGFR(T790M) (kinases [4]; target EGFR(T790M); 1 μM) [% Ctrl] | % Ctrl, FLT3(D835Y) (kinases [5]; target FLT3(D835Y); 1 μM) [% Ctrl] | % Ctrl, EGFR(E746-A750del) (kinases [6]; [8]) [% Ctrl] | % Ctrl, FLT3(K663Q) (kinases [1]; 1 μM; FLT3(K663Q)) [% Ctrl] | % Ctrl, EGFR(S752-I759del) (kinases [2]; 1 μM; EGFR(S752-I759del)) [% Ctrl] | % Ctrl, ABL2 (kinases [3]; 1 μM; ABL2) [% Ctrl] | % Ctrl, EGFR(T790M) (kinases [4]; 1 μM; EGFR(T790M)) [% Ctrl] | % Ctrl, FLT3(D835Y) (kinases [5]; 1 μM; FLT3(D835Y)) [% Ctrl] | % Ctrl, EGFR(E746-A750del) (kinases [6]; 1 μM; EGFR(E746-A750del)) [% Ctrl] | other results
1 | Cc1cc2c([nH]1)/C=C1\C(=O)Nc3cc(Cl)c(cc31)OCCO[C@@H](C(=O)N1CCN(C)CC1)CN(C)C2=O [Ex. 138, [7R,16a(17)Z]-19-chloro-2,5-dimethyl-7-(4-methylpipearazine-1-carbonyl)-6,7,9,10-tetrahydro-1H-12,14-(ethanediylidene)dipyrrolo[3,2-i:3′,4′-l][1,4,7]dioxazacyclopentadecine-4,16(5H,15H)-dione] | 95 | 92 | 98 | 94 | 45 | 78 |  |  |  |  |  |  | 
2 | CN1CCSCCOc2cc3c(cc2Cl)NC(=O)/C3=C\c2[nH]ccc2C1=O [Ex. 153] | 1.4 | 100 | 35 | 83 | 1.7 | 56 |  |  |  |  |  |  | 
3 | Cc1cc2c([nH]1)/C=C1\C(=O)Nc3cnc(cc31)-c1cnn(C)c1CN(C)CCN(C)C2=O [Ex. 172, [3a(4)Z]-6,9,12,14-tetramethyl-9,10,11,12,13,14-hexahydro-17,1-(azenometheno)pyrazolo[4,3-m]dipyrrolo[3,2-f:3′,4′-i][1,4]diazacyclopentadecine-3,8(2H,5H)-dione] |  |  |  |  |  |  |  |  |  |  |  |  | % Ctrl, FLT3(K663Q) (kinases [1]; 1 μM; target FLT3(K663Q)): 0.6 % Ctrl; % Ctrl, EGFR(S752-I759del) (kinases [2]; 1 μM; target EGFR(S752-I759del)): 37 % Ctrl; % Ctrl, ABL2 (kinases [3]; 1 μM; target ABL2): 4.2 % Ctrl; % Ctrl, EGFR(T790M) (kinases [4]; 1 μM; target EGFR(T790M)): 22 % Ctrl; % Ctrl, FLT3(D835Y) (kinases [5]; 1 μM; target FLT3(D835Y)): 0.1 % Ctrl; % Ctrl, EGFR(E746-A750del) (kinases [6]; 1 μM; target EGFR(E746-A750del)): 43 % Ctrl
4 | Cc1cc2c([nH]1)/C=C1\C(=O)Nc3ccc(cc31)-c1c(C)nn(C)c1COCCN(C)C2=O [Ex. 146, [3a(4)Z]-6,9,14,16-tetramethyl-10,11,13,14-tetrahydro-2H-1,17-(ethanediylidene)pyrazolo[4,3-m]dipyrrolo[3,2-f:3′,4′-i][1,4]oxazacyclopentadecine-3,8(5H,9H)-dione] | 14 | 83 | 83 | 57 | 22 | 73 |  |  |  |  |  |  | 

More lines, main results first:

Row | % Ctrl, FLT3(K663Q) (kinases [1]; target FLT3(K663Q); 1 μM) [% Ctrl] | % Ctrl, EGFR(S752-I759del) (kinases [2]; [7]) [% Ctrl] | % Ctrl, ABL2 (kinases [3]; target ABL2; 1 μM) [% Ctrl] | % Ctrl, EGFR(T790M) (kinases [4]; target EGFR(T790M); 1 μM) [% Ctrl] | % Ctrl, FLT3(D835Y) (kinases [5]; target FLT3(D835Y); 1 μM) [% Ctrl] | % Ctrl, EGFR(E746-A750del) (kinases [6]; [8]) [% Ctrl] | % Ctrl, FLT3(K663Q) (kinases [1]; 1 μM; FLT3(K663Q)) [% Ctrl] | % Ctrl, EGFR(S752-I759del) (kinases [2]; 1 μM; EGFR(S752-I759del)) [% Ctrl] | % Ctrl, ABL2 (kinases [3]; 1 μM; ABL2) [% Ctrl] | % Ctrl, EGFR(T790M) (kinases [4]; 1 μM; EGFR(T790M)) [% Ctrl] | % Ctrl, FLT3(D835Y) (kinases [5]; 1 μM; FLT3(D835Y)) [% Ctrl] | % Ctrl, EGFR(E746-A750del) (kinases [6]; 1 μM; EGFR(E746-A750del)) [% Ctrl] | Compound | other results
5 |  |  |  |  |  |  | 77 | 98 | 91 | 75 | 22 | 86 | Cc1cc2c([nH]1)/C=C1\C(=O)Nc3ccc(cc31)-c1c(noc1C)COCCN(C)C2=O [Ex. 128, [3a(4)Z]-6,9,16-trimethyl-1,11-dihydro-2H,13H-1,17-(ethanediylidene)[1,4]oxazolo[4,3-m]dipyrrolo[3,2-f:3′,4′-i][1,4]oxazacyclopentadecine-3,8(5H,9H)-dione] | 
6 |  |  |  |  |  |  | 44 | 54 | 100 | 68 | 9.1 | 92 | Cc1cc2c([nH]1)/C=C1\C(=O)Nc3ccc(cc31)CN(C)C(=O)COCCNC2=O [Ex.111, [17a(18)Z]-2,11-dimethyl-6,7,11,12-tetrahydro-1H-13,15-(ethanediylidene)dipyrrolo[3,2-f:3′,4′-i][1,4,14]oxadiazacyclohexadecine-4,10,17(5H,9H,16H)-trione] | 
7 |  |  |  |  |  |  | 100 | 78 | 96 | 100 | 9.1 | 100 | Cc1cc2c([nH]1)/C=C1\C(=O)Nc3ccc(cc31)OCCOCCNC2=O [Ex. 129, [16a(17)Z]-2-methyl-6,7,9,10-tetrahydro-1H-12,14-(ethanediylidene)dipyrrolo[3,2-i:3′,4′-l][1,4,7]dioxazacyclopentadecine-4,16(5H,15H)-dione] | 
